Measured values from ChEMBL document CHEMBL2040746, “Synthesis and evaluation of novel podophyllotoxin analogs” (Bioorg Med Chem Lett, 2012).
Converted amounts (≈) assume the structure as drawn.

Tests used:
Type in all cases: functional, cell-based
A549 = experiment: Cytotoxicity against human A549 cells by SRB assay
DU-145 = experiment: Cytotoxicity against human DU145 cells by SRB assay
KB = experiment: Cytotoxicity against human KB cells by SRB assay
[1] = Cytotoxicity against human KBVIN cells by SRB assay

| SMILES | IC50 (A549) | IC50 (DU-145) | IC50 (KB) | IC50 [1] |
| --- | --- | --- | --- | --- |
| COC(=O)[C@H]1C(/C=C/C(=O)c2ccc(O)cc2)=Cc2cc(OC)c(OC)cc2[C@H]1c1cc(OC)c(OC)c(OC)c1 | 6.79 µg/mL (≈ 12.1 µM) | 5.84 µg/mL (≈ 10.4 µM) | 5.9 µg/mL (≈ 10.5 µM) | 5.17 µg/mL (≈ 9.22 µM) |
| COC(=O)[C@H]1C(/C=C/C(=O)c2ccc([N+](=O)[O-])cc2)=Cc2cc(OC)c(OC)cc2[C@H]1c1cc(OC)c(OC)c(OC)c1 | 16.8 µg/mL (≈ 28.5 µM) | 20.3 µg/mL (≈ 34.4 µM) | 16 µg/mL (≈ 27.1 µM) | 23 µg/mL (≈ 39 µM) |
| COc1cc([C@@H]2c3cc4c(cc3[C@@H](Nc3ccc([N+](=O)[O-])cc3)[C@H]3COC(=O)[C@H]23)OCO4)cc(OC)c1O | 0.113 µg/mL (≈ 0.217 µM) | 0.8 µg/mL (≈ 1.54 µM) | 0.819 µg/mL (≈ 1.57 µM) | 2.1 µg/mL (≈ 4.03 µM) |
| COc1cc2c(cc1OC)[C@@H](c1cc(OC)c(OC)c(OC)c1)[C@H](C(=O)N1CCCC1)C(/C=C/C(=O)c1ccc(C3CCCCC3)cc1)=C2 | 12 µg/mL (≈ 18 µM) | 12.8 µg/mL (≈ 19.2 µM) | 12.3 µg/mL (≈ 18.4 µM) | 12.3 µg/mL (≈ 18.5 µM) |
| COc1cc2c(cc1OC)[C@@H](c1cc(OC)c(OC)c(OC)c1)[C@H](C(=O)N1CCCC1)C(/C=C/C(=O)c1ccc(-c3ccccc3)cc1)=C2 | 24.6 µg/mL (≈ 37.3 µM) | 15.5 µg/mL (≈ 23.4 µM) | 16.6 µg/mL (≈ 25.2 µM) | 16.9 µg/mL (≈ 25.6 µM) |
